Experimental data from PubChem BioAssay AID1963971 (Molecular Pharmacology Branch, DTP, NCI, 2024).

System: 953936-095-R-J2-PDC spheroids with HUVEC/MSC, viability
Assay: Anticancer human tumor 953936-095-R-J2-PDC patient-derived cervical squamous cell carcinoma cell line growth inhibition [PI3K]
Conditions: for IC50: curve of first compound; for viability, T/C: stronger effect = lower value
Description: Combinatorial screen of targeted agents with the PI3K inhibitors inavolisib, alpelisib, duvelisib, and copanlisib in multi-cell type tumor spheroids
A high-throughput screen of multi-cell type tumor spheroids was designed to identify active combinations of targeted small molecules and PI3K pathway inhibitors. Complex spheroids include a stromal component modeled by human endothelial cells (HUVEC) and fibroblasts modeled by human mesenchymal stem cells (MSCs). The concentration ranges selected for each drug and investigational agent were based upon clinically achievable concentrations if the clinical Cmax of the agent was known.
Compounds. The drugs and investigational agents: inavolisib (NSC800729), alpelisib (NSC765974), duvelisib (NSC772469), copanlisib (NSC816437), ipatasertib (NSC767898), afuresertib (NSC778305), talazoparib (NSC767125), sapanisertib (NSC764658), selumetinib (NSC741078), tovorafenib (DAY101, NSC766906), vemurafenib (NSC761431), ravoxertinib (NSC781343), sotorasib (NSC818433), MRTX1133 (NSC 836407), abemaciclib (NSC 768073), palbociclib (NSC758247), venetoclax (NSC 766270), SY5609 (NSC837396), enzalutamide (NSC755605), and darolutamide (NSC825331), were obtained from the National Cancer Institute (NCI) Developmental Therapeutics Program Chemical Repository. The FDA-approved anticancer drug set is available from the NCI Developmental Therapeutics Program. […] The stock solutions were prepared in dimethyl sulfoxide (DMSO, Sigma-Aldrich, St. Louis, MO, cat. D2650) at 800-fold the tested concentration and stored at -70 degrees C prior to their use. All drugs and investigational agents were tested over a range starting from a high concentration at or near the clinical Cmax and decreasing in half-log increments. If the clinical Cmax for an agent had not been determined, the highest concentration tested was 10 microM.
Cell Culture. All cells were maintained in an incubator at 37 degrees C and 5% CO2 with 95% humidity. The PDC lines were cultured according to standard operating procedures established by the NCI PDMR (https://pdmr.cancer.gov/sops/default.htm). All PDCs were thawed and cultured in Matrigel-coated flasks prepared with a working solution of 1X Ham's F-12 nutrient mix, without supplementation (Invitrogen, Waltham, MA, cat. 11765054), 100 U/mL penicillin-streptomycin (Invitrogen, cat. 15140122), and 2.5% Matrigel (Corning Inc., Corning, NY, cat. 354248) for the first three passages. The 354836-022-R-J1-PDC, 475296-252-R-J1-PDC, and 997726-040-R-J2-PDC lines were cultured in 6A media, which includes advanced DMEM/F-12 (Thermo Fisher Scientific, cat. 12634028), 10 mM HEPES (Thermo Fisher Scientific, cat. 15630080), 1X GlutaMAX supplement (Thermo Fisher Scientific, cat. 35050061), 0.1 mg/mL primocin (InvivoGen, San Diego, CA, cat. ant-pm-2), 10% defined fetal bovine serum, heat inactivated (HyClone Laboratories Inc., Logan, UT, cat. SH30070.03HI), 50% L-WRN conditioned media (ATCC, cat. CRL-3276), 1.25 mM N-Acetyl-L-cysteine (Sigma-Aldrich, cat. A9165), 10 mM nicotinamide (Sigma-Aldrich, cat. N0636), 1X B-27 supplement (Thermo Fisher Scientific, cat. 17504044), 1X N-2 supplement (Thermo Fisher Scientific, cat. 17502048), and 10 microM Y-27632 dihydrochloride (Tocris Bioscience, Bristol, United Kingdom, cat. 1254). The 624824-186-R-J2-PDC line was cultured in 6C/Colon 1B media, which includes all 6A media components plus 50 ng/mL human EGF recombinant protein (Thermo Fisher Scientific, cat. PHG0311). […]
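Also: spheroids exposed to compounds for seven days before read-out.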

With C=CC(=O)N1CCN(c2nc(=O)n(-c3c(C)ccnc3C(C)C)c3nc(-c4c(O)cccc4F)c(F)cc23)C(C)C1 (centres undefined) + Cc1nc(NC(=O)N2CCCC2C(N)=O)sc1-c1ccnc(C(C)(C)C(F)(F)F)c1 the IC50 (second compound 0.0316 µM) was greater than 10000 nM, the IC50 (second compound 0.1 µM) was greater than 10000 nM and the IC50 (second compound 0.316 µM) was greater than 10000 nM. It also gave an IC50 (second compound 1 µM) of less than 31.6 nM, an IC50 (second compound 3.16 µM) of less than 31.6 nM and an IC50 (second compound 10 µM) of less than 31.6 nM. The viability, T/C (second compound 0.0316 µM, first compound 0.0316 µM) was 85.5%, the viability, T/C (second compound 0.0316 µM, first compound 0.1 µM) was 89.2% and the viability, T/C (second compound 0.0316 µM, first compound 0.316 µM) was 95.8%. For the same compound, the viability, T/C (second compound 0.0316 µM, first compound 1 µM) was 109%, the viability, T/C (second compound 0.0316 µM, first compound 3.16 µM) was 110% and the viability, T/C (second compound 0.0316 µM, first compound 10 µM) was 105%. For the same compound, the viability, T/C (second compound 0.1 µM, first compound 0.0316 µM) was 81.9%, the viability, T/C (second compound 0.1 µM, first compound 0.1 µM) was 83.7% and the viability, T/C (second compound 0.1 µM, first compound 0.316 µM) was 90.2%. For the same compound, the viability, T/C (second compound 0.1 µM, first compound 1 µM) was 98.6%, the viability, T/C (second compound 0.1 µM, first compound 3.16 µM) was 123% and the viability, T/C (second compound 0.1 µM, first compound 10 µM) was 117%. It also gave a viability, T/C (second compound 0.316 µM, first compound 0.0316 µM) of 64.5%, a viability, T/C (second compound 0.316 µM, first compound 0.1 µM) of 65.7% and a viability, T/C (second compound 0.316 µM, first compound 0.316 µM) of 68.8%. The viability, T/C (second compound 0.316 µM, first compound 1 µM) was 86%, the viability, T/C (second compound 0.316 µM, first compound 3.16 µM) was 84.4% and the viability, T/C (second compound 0.316 µM, first compound 10 µM) was 73.7%. The viability, T/C (second compound 1 µM, first compound 0.0316 µM) was 46%, the viability, T/C (second compound 1 µM, first compound 0.1 µM) was 52.1% and the viability, T/C (second compound 1 µM, first compound 0.316 µM) was 47.7%. The viability, T/C (second compound 1 µM, first compound 1 µM) was 51.5%, the viability, T/C (second compound 1 µM, first compound 3.16 µM) was 55.9% and the viability, T/C (second compound 1 µM, first compound 10 µM) was 48%. The viability, T/C (second compound 3.16 µM, first compound 0.0316 µM) was 27%, the viability, T/C (second compound 3.16 µM, first compound 0.1 µM) was 27.8% and the viability, T/C (second compound 3.16 µM, first compound 0.316 µM) was 27%. For the same compound, the viability, T/C (second compound 3.16 µM, first compound 1 µM) was 32.8%, the viability, T/C (second compound 3.16 µM, first compound 3.16 µM) was 33.4% and the viability, T/C (second compound 3.16 µM, first compound 10 µM) was 26.1%. For the same compound, the viability, T/C (second compound 10 µM, first compound 0.0316 µM) was 11.5%, the viability, T/C (second compound 10 µM, first compound 0.1 µM) was 11.8% and the viability, T/C (second compound 10 µM, first compound 0.316 µM) was 11.9%. For the same compound, the viability, T/C (second compound 10 µM, first compound 1 µM) was 11.9%, the viability, T/C (second compound 10 µM, first compound 3.16 µM) was 10.8% and the viability, T/C (second compound 10 µM, first compound 10 µM) was 7.49%.
Cn1cnc2c(F)c(Nc3ccc(Br)cc3Cl)c(C(=O)NOCCO)cc21 + CC(Nc1ccc2c(c1)OCCn1cc(N3C(=O)OCC3C(F)F)nc1-2)C(N)=O was tested, and the IC50 (second compound 0.00316 µM) was 494 nM, the IC50 (second compound 0.01 µM) was 279 nM and the IC50 (second compound 0.0316 µM) was 88.5 nM. For the same compound, the IC50 (second compound 0.1 µM) was less than 9.49 nM, the IC50 (second compound 0.316 µM) was less than 9.49 nM and the IC50 (second compound 1 µM) was less than 9.49 nM. It also gave a viability, T/C (second compound 0.00316 µM, first compound 0.00949 µM) of 88.3%, a viability, T/C (second compound 0.00316 µM, first compound 0.03 µM) of 81.4% and a viability, T/C (second compound 0.00316 µM, first compound 0.0949 µM) of 66%. For the same compound, the viability, T/C (second compound 0.00316 µM, first compound 0.3 µM) was 55.7%, the viability, T/C (second compound 0.00316 µM, first compound 0.949 µM) was 43.7% and the viability, T/C (second compound 0.00316 µM, first compound 3 µM) was 30.2%. It also gave a viability, T/C (second compound 0.01 µM, first compound 0.00949 µM) of 75.6%, a viability, T/C (second compound 0.01 µM, first compound 0.03 µM) of 68.5% and a viability, T/C (second compound 0.01 µM, first compound 0.0949 µM) of 60%. The viability, T/C (second compound 0.01 µM, first compound 0.3 µM) was 51.5%, the viability, T/C (second compound 0.01 µM, first compound 0.949 µM) was 35% and the viability, T/C (second compound 0.01 µM, first compound 3 µM) was 26.3%. It also gave a viability, T/C (second compound 0.0316 µM, first compound 0.00949 µM) of 67.9%, a viability, T/C (second compound 0.0316 µM, first compound 0.03 µM) of 56.6% and a viability, T/C (second compound 0.0316 µM, first compound 0.0949 µM) of 49.7%. For the same compound, the viability, T/C (second compound 0.0316 µM, first compound 0.3 µM) was 42.5%, the viability, T/C (second compound 0.0316 µM, first compound 0.949 µM) was 29.7% and the viability, T/C (second compound 0.0316 µM, first compound 3 µM) was 20.6%. The viability, T/C (second compound 0.1 µM, first compound 0.00949 µM) was 46%, the viability, T/C (second compound 0.1 µM, first compound 0.03 µM) was 41.2% and the viability, T/C (second compound 0.1 µM, first compound 0.0949 µM) was 38.7%. The viability, T/C (second compound 0.1 µM, first compound 0.3 µM) was 23.9%, the viability, T/C (second compound 0.1 µM, first compound 0.949 µM) was 16.1% and the viability, T/C (second compound 0.1 µM, first compound 3 µM) was 7.95%. It also gave a viability, T/C (second compound 0.316 µM, first compound 0.00949 µM) of 28.1%, a viability, T/C (second compound 0.316 µM, first compound 0.03 µM) of 23% and a viability, T/C (second compound 0.316 µM, first compound 0.0949 µM) of 16.6%. The viability, T/C (second compound 0.316 µM, first compound 0.3 µM) was 11.6%, the viability, T/C (second compound 0.316 µM, first compound 0.949 µM) was 6.22% and the viability, T/C (second compound 0.316 µM, first compound 3 µM) was 3.26%. It also gave a viability, T/C (second compound 1 µM, first compound 0.00949 µM) of 18.6%, a viability, T/C (second compound 1 µM, first compound 0.03 µM) of 14.5% and a viability, T/C (second compound 1 µM, first compound 0.0949 µM) of 10.3%. The viability, T/C (second compound 1 µM, first compound 0.3 µM) was 8.09%, the viability, T/C (second compound 1 µM, first compound 0.949 µM) was 4.74% and the viability, T/C (second compound 1 µM, first compound 3 µM) was 1.5%.
